{
  "source": "patent US20140287011A1",
  "about": "“ARTHROPOD PEST CONTROL COMPOSITION” (SUMITOMO CHEMICAL COMPANY, LIMITED, priority 2011, published 2014)",
  "origin": "cited, not measured here",
  "conditions": "water at 20° C.",
  "data": [
    {"smiles": "CCOc1cc(C(C)(C)C)ccc1C1COC(c2c(F)cccc2F)=N1", "note": "(stereo not shown) [the present oxazole compound, 2-(2,6-difluorophenyl)-4-[4-(1,1-dimethylethyl)-2-ethoxyphenyl]-4,5-dihydrooxazole]", "values": [
      {"measurement": "solubility", "result": 75.4, "unit": "pg per 1 liter"}
    ]}
  ]
}
